Test results published in patent publication US20140023611A1 (priority 2010, published 2014).

Tests used:
rat NaP2b (SLC34A2) = target: T1, rat NaP2b (SLC34A2) (Rattus norvegicus, UniProt Q9JJ09); experiment: Inhibition of NaP2b-mediated Pi (33P) uptake in transfected HEK293 cells, rat NaP2b; assay type: cell-based; settings: 33P Pi uptake, 0.1 mM phosphate, value given as pIC50 range
T1 construct: host or cells: HEK293
T1 sequence (Q9JJ09 1-695): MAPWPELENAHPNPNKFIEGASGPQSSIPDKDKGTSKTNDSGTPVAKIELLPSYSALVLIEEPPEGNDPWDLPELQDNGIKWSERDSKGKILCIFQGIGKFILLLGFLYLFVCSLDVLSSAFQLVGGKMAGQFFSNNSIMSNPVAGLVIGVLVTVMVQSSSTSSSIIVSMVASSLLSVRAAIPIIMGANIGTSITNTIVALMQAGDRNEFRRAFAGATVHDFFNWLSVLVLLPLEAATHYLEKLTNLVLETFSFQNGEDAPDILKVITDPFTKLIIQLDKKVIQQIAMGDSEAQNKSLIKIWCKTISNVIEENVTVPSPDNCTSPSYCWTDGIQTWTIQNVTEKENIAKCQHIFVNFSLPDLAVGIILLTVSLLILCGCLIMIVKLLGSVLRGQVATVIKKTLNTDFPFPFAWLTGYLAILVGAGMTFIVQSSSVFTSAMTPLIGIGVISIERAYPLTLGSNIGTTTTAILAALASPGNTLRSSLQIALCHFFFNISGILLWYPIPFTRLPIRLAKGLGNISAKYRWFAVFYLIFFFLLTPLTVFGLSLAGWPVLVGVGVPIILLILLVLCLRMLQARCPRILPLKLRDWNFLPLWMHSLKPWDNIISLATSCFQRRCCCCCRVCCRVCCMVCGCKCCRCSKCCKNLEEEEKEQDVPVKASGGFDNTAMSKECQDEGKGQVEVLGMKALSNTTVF
Summary of the method: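 The cells transiently expressed NaP2b after Lipofectamine transfection. Each compound was run in duplicate over twelve concentrations, 0.1 nM–30 uM.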

human NaP2b (SLC34A2) = target: T2, human NaP2b (SLC34A2) (Homo sapiens, UniProt O95436); experiment: Inhibition of NaP2b-mediated Pi (33P) uptake in transfected HEK293 cells, human NaP2b; assay type: cell-based; settings: read-out: pIC50 range for human NaP2b (converted)
T2 construct: host or cells: HEK293
T2 sequence (O95436 1-690): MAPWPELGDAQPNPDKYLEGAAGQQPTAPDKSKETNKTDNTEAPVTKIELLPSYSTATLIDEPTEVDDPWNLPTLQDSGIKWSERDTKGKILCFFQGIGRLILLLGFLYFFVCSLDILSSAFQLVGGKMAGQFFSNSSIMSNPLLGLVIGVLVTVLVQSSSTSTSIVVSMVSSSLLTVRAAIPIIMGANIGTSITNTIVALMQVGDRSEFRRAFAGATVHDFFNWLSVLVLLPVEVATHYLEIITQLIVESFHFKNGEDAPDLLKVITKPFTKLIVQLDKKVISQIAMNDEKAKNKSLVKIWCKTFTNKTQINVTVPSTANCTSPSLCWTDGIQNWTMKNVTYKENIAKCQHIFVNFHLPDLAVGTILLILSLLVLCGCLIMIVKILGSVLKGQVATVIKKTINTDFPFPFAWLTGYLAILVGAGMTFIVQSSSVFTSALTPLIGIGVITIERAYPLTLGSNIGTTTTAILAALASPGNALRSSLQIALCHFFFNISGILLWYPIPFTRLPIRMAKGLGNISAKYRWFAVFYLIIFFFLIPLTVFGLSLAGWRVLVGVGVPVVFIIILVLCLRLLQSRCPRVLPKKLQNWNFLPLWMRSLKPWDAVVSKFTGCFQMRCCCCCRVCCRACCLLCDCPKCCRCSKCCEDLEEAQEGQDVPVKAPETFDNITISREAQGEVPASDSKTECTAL
Summary of the method: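 Uptake of 33P-phosphate (100 uM KH2PO4 carrier, sodium vs choline buffer, pH 7.4) measured after 3-30 min at room temperature, with test compound at twelve concentrations from 0.1 nM to 30 uM in duplicate. Cells were HEK293 transfected with mutated human NaP2b (Thr insertion after 37, N39D) and treated with a PiT-silencing agent. pIC50 values from scintillation counts.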

Question: What does the source list for CCN(CC)c1ccc(NC(=O)c2cccc(C(=O)N(C)CCN3CCN(C(=O)OCCOCCOCCOCCOCCOCCOCCOC)CC3)c2)c(-c2cc(C(=O)N[C@H]3CCCc4ccccc43)ccn2)c1 [Example 230, (S)-2,5,8,11,14,17,20-heptaoxadocosan-22-yl 4-(2-(3-(4-(diethylamino)-2-(4-(1,2,3,4-tetrahydronaphthalen-1-ylcarbamoyl)pyridin-2-yl)phenylcarbamoyl)-N-methylbenzamido)ethyl)piperazine-1-carboxylate]?
Answer: IC50 (rat NaP2b (SLC34A2)): 1 to 7.94 µM; IC50 (human NaP2b (SLC34A2)): 1 to 7.94 µM

Question: Which results are given for CCN(CC)c1ccc(NC(=O)c2cccc(C(=O)N(C)CCN3CCN(C(=O)N(C)CCOCCOCCOCCC(=O)N4CCN(CCOCCO)CC4)CC3)c2)c(-c2cc(C(=O)N[C@H]3CCCc4ccccc43)ccn2)c1 [Example 231, 3-N-[4-(diethylamino)-2-(4-{[(1S)-1,2,3,4-tetrahydronaphthalen-1-yl]carbamoyl}pyridin-2-yl)phenyl]-1-N-(2-{4-[(2-{2-[2-(3-{4-[2-(2-hydroxyethoxy)ethyl]piperazin-1-yl}-3-oxopropoxy)ethoxy]ethoxy}ethyl)(methyl)carbamoyl]piperazin-1-yl}ethyl)-1-N-methylbenzene-1,3-dicarboxamide]?
Answer: IC50 (rat NaP2b (SLC34A2)): 10 to 31.6 µM; IC50 (human NaP2b (SLC34A2)): 10 to 31.6 µM

Question: CN(CCOCCOCCOCCC(=O)N1CCN(CCOCCO)CC1)C(=O)Cc1cccc(SCc2cccc(C(=O)Nc3ccc(N4CCCCC4)cc3-c3cc(C(=O)N[C@H]4CCCc5ccccc54)ccn3)c2)c1 [Example 236, (S)-2-(2-(3-((3-(15-(4-(2-(2-hydroxyethoxy)ethyl)piperazin-1-yl)-3-methyl-21-2.15-dioxo-6,9,12-trioxa-3-azapentadecyl)phenylthio)methyl)benzamido)-5-(piperidin-1-yl)phenyl)-N-(1,2,3,4-tetrahydronaphthalen-1-yl)isonicotinamide] was tested. Which IC50 (rat NaP2b (SLC34A2)) did it give?
Answer: < 1 µM

Question: What about the IC50 (human NaP2b (SLC34A2)) of the same molecule?
Answer: < 1 µM

Question: What does the source list for CN(CCN1CCOC[C@H]1C(=O)N(C)CCOCCOCCOCCC(=O)OC(C)(C)C)C(=O)c1cccc(C(=O)Nc2ccc(N3CCCCC3)cc2-c2cc(C(=O)N[C@H]3CCCc4ccccc43)ccn2)c1 [Example 242, tert-butyl 2-methyl-1-((S)-4-(2-(N-methyl-3-(4-(piperidin-1-yl)-2-(4-((S)-1,2,3,4-tetrahydronaphthalen-1-ylcarbamoyl)pyridin-2-yl)phenylcarbamoyl)benzamido)ethyl)morpholin-3-yl)-1-oxo-5,8,11-trioxa-2-azatetradecan-14-oate]?
Answer: IC50 (rat NaP2b (SLC34A2)): < 1 µM; IC50 (human NaP2b (SLC34A2)): < 1 µM

Question: CN(CCN1CCOC[C@H]1C(=O)N(C)CCOCCOCCOCCC(=O)O)C(=O)c1cccc(C(=O)Nc2ccc(N3CCCCC3)cc2-c2cc(C(=O)N[C@H]3CCCc4ccccc43)ccn2)c1 [Example 243, 2-methyl-1-((S)-4-(2-(N-methyl-3-(4-(piperidin-1-yl)-2-(4-((S)-1,2,3,4-tetrahydronaphthalen-1-ylcarbamoyl)pyridin-2-yl)phenylcarbamoyl)benzamido)ethyl)morpholin-3-yl)-1-oxo-5,8,11-trioxa-2-azatetradecan-14-oic acid] was tested. Which IC50 (rat NaP2b (SLC34A2)) did it give?
Answer: 10 to 31.6 µM

Question: And the IC50 (human NaP2b (SLC34A2))?
Answer: 10 to 31.6 µM

Question: How did the IC50 (rat NaP2b (SLC34A2)) turn out when CN(CCN1CCC(C(=O)OC(C)(C)C)CC1)C(=O)c1cccc(C(=O)Nc2ccc(N3CCCCC3)cc2-c2cc(C(=O)N[C@H]3CCCc4ccccc43)ccn2)c1 [Example 244, (S)-tert-butyl 1-(2-(N-methyl-3-(4-(piperidin-1-yl)-2-(4-(1,2,3,4-tetrahydronaphthalen-1-ylcarbamoyl)pyridin-2-yl)phenylcarbamoyl)benzamido)ethyl)piperidine-4-carboxylate] was run?
Answer: 1 to 7.94 µM

Question: What about the IC50 (human NaP2b (SLC34A2)) of the same molecule?
Answer: 1 to 7.94 µM

Question: Which IC50 (rat NaP2b (SLC34A2)) does the source give for O=C(O)CCOCCOCCOCCOCCCc1cccc(SCc2cccc(C(=O)Nc3ccc(N4CCCCC4)cc3-c3cc(C(=O)N[C@H]4CCCc5ccccc54)ccn3)c2)c1 [Example 247, 3-(2-(2-(2-(3-(3-((30S)-3-((2-(4-(((S)-1,2,3,4-tetrahydronaphthalen-1-yl)carbamoyl)pyridin-2-yl)-4-(piperidin-1-yl)phenyl)carbamoyl)benzylthio)phenyl)propoxy)ethoxy)ethoxy)ethoxy)propanoic acid] here?
Answer: 1 to 7.94 µM

Question: What about the IC50 (human NaP2b (SLC34A2)) of the same molecule?
Answer: 1 to 7.94 µM

Question: With CCN(CC)c1ccc(NC(=O)c2cccc(CCCOCCOCCOCCOCCC(=O)N3CCC[C@H](C(=O)N(C)CCOCCOCCOCCOCCOCCOCCOC)C3)c2)c(-c2cc(C(=O)NCc3cccc(C(F)(F)F)c3)ccn2)c1 [Example 257, (S)-2-(2-(3-(16-(3-(2,5,8,11,14,17,20-heptaoxadocosan-22-yl(methyl)carbamoyl)piperidin-1-yl)-16-oxo-4,7,10,13-tetraoxahexadecyl)benzamido)-5-(diethylamino)phenyl)-N-(3-(trifluoromethyl)benzyl)isonicotinamide] as the molecule, how does the IC50 (rat NaP2b (SLC34A2)) read?
Answer: 1 to 7.94 µM

Question: What about the IC50 (human NaP2b (SLC34A2)) of the same molecule?
Answer: < 1 µM

Question: Which results are given for CCN(CC)c1ccc(NC(=O)c2cccc(CCCOCCOCCOCCOCCC(=O)N3CCN(c4ccc(OCCOCCOCCOC)cc4)CC3)c2)c(-c2cc(C(=O)NCc3cccc(C(F)(F)F)c3)ccn2)c1 [Example 263, 2-(5-(diethylamino)-2-(3-(16-(4-(4-(2-(2-(2-methoxyethoxy)ethoxy)ethoxy)phenyl)piperazin-1-yl)-16-oxo-4,7,10,13-tetraoxahexadecyl)benzamido)phenyl)-N-(3-(trifluoromethyl)benzyl)isonicotinamide]?
Answer: IC50 (rat NaP2b (SLC34A2)): 1 to 7.94 µM; IC50 (human NaP2b (SLC34A2)): < 1 µM

Question: Which results are given for CCN(CC)c1ccc(NC(=O)c2cccc(C#CCOCCOCCOCCOCCO)c2)c(-c2cc(C(=O)NCc3cccc(C(F)(F)F)c3)ccn2)c1 [Example 266, 2-(5-(diethylamino)-2-(3-(1-hydroxy-3,6,9,12-tetraoxapentadec-14-yn-15-yl)benzamido)phenyl)-N-(3-(trifluoromethyl)benzyl)isonicotinamide]?
Answer: IC50 (rat NaP2b (SLC34A2)): 1 to 7.94 µM; IC50 (human NaP2b (SLC34A2)): 1 to 7.94 µM

Question: CCN(CC)c1ccc(NC(=O)c2cccc(CCCOCCOCCOCCOCCO)c2)c(-c2cc(C(=O)NCc3cccc(C(F)(F)F)c3)ccn2)c1 [Example 267, 2-(5-(diethylamino)-2-(3-(1-hydroxy-3,6,9,12-tetraoxapentadecan-15-yl)benzamido)phenyl)-N-(3-(trifluoromethyl)benzyl)isonicotinamide] was tested. Which IC50 (rat NaP2b (SLC34A2)) did it give?
Answer: < 1 µM

Question: And the IC50 (human NaP2b (SLC34A2))?
Answer: < 1 µM

Question: With CCN(CC)c1ccc(NC(=O)c2cccc(C#CCOCCOCCOCCOCCOCCOCCOCCOCCOC)c2)c(-c2cc(C(=O)NCc3cccc(C(F)(F)F)c3)ccn2)c1 [Example 268, 2-(2-(3-(2,5,8,11,14,17,20,23,26-nonaoxanonacos-28-yn-29-yl)benzamido)-5-(diethylamino)phenyl)-N-(3-(trifluoromethyl)benzyl)isonicotinamide] as the molecule, how does the IC50 (rat NaP2b (SLC34A2)) read?
Answer: < 1 µM

Question: And the IC50 (human NaP2b (SLC34A2))?
Answer: < 1 µM

Question: With CCN(CC)c1ccc(NC(=O)c2cccc(CCCOCCOCCOCCOCCNC(=O)N(C)CCOCCOCCOCCOCCOCCOCCOC)c2)c(-c2cc(C(=O)NCc3cccc(C(F)(F)F)c3)ccn2)c1 [Example 273, 2-(5-(diethylamino)-2-(3-(23-methyl-24-oxo-2,5,8,11,14,17,20,28,31,34,37-undecaoxa-23,25-diazatetracontan-40-yl)benzamido)phenyl)-N-(3-(trifluoromethyl)benzyl)isonicotinamide] as the molecule, how does the IC50 (rat NaP2b (SLC34A2)) read?
Answer: 1 to 7.94 µM

Question: What about the IC50 (human NaP2b (SLC34A2)) of the same molecule?
Answer: 1 to 7.94 µM

Question: Which IC50 (rat NaP2b (SLC34A2)) does the source give for CCN(CC)c1ccc(NC(=O)c2cccc(CCCOCCOCCOCCOCCNC(=O)N(CCO)CCO)c2)c(-c2cc(C(=O)NCc3cccc(C(F)(F)F)c3)ccn2)c1 [Example 274, 2-(5-(diethylamino)-2-(3-(1-hydroxy-3-(2-hydroxyethyl)-4-oxo-8,11,14,17-tetraoxa-3,5-diazaicosan-20-yl)benzamido)phenyl)-N-(3-(trifluoromethyl)benzyl)isonicotinamide] here?
Answer: 1 to 7.94 µM

Question: What about the IC50 (human NaP2b (SLC34A2)) of the same molecule?
Answer: 1 to 7.94 µM
